Data published in ChEMBL document CHEMBL1158796, “Hectochlorin and morpholine derivatives from the Thai sea hare, Bursatella leachii” (2005).

What was measured:
Format in all cases: functional
Settings in all cases: read-out: ED50 (the source's name)
[1] = test system: KB; test: Cytotoxicity against human KB cells by SRB assay
[2] = test system: NCI-H187; test: Cytotoxicity against human NCI-H187 cells by SRB assay
[3] = Cytotoxicity against human BC cells by SRB assay

Structure (SMILES)	EC50 [1] [µM]	EC50 [2] [µM]	EC50 [3] [µM]
C[C@@H]1C(=O)O[C@@H](C(C)(C)O)c2nc(cs2)C(=O)OC(C)(C)[C@H](O)c2nc(cs2)C(=O)O[C@H]1CCCC(C)(Cl)Cl [DEACETYLHECTOCHLORIN]	0.31	0.32	1.03
CC(=O)O[C@@H]1c2nc(cs2)C(=O)O[C@@H](CCCC(C)(Cl)Cl)[C@H](C)C(=O)O[C@@H](C(C)(C)O)c2nc(cs2)C(=O)OC1(C)C [HECTOCHLORIN]	0.86	1.2	
